The text below walks through data of PMC10290137, “Systems-level analyses of protein-protein interaction network dysfunctions via epichaperomics identify cancer-specific mechanisms of stress adaptation” (Nature Communications, 2023).

The structures appear in SMILES notation. Read-outs that look alike come from different tables or passages of the source.

For test [1], the system named is T1, HSC70.
T1 construct: gene HSPA8; endogenous epiHSP70 epichaperome assemblies in human cancer cells (probably MDA-MB-468); HSC70/HSP70 pool, no recombinant construct
Description: CETSA in MDA-MB-468 cells and homogenates; the value is the IC50 for epiHSP70s disruption in cancer cells. Format: cell-based.

For test [2], the system named is T1, HSC70. The description is as above. The format is cell-based. From the text: CETSA in MDA-MB-468 cells and homogenates; the value is the IC50 for epiHSP70s disruption in cancer cells (b12) on HSC70 | three evaluated YKs—YK5, YK198 and LSI137—we observed in CETSA, performed both in cells and cell homogenates, a significant thermal stabilization
This is another data set of the same source.

The target of test [3] is T2, HSC70 (Homo sapiens, UniProt P11142).
T2 construct: gene HSPA8
T2 sequence (P11142 2-646): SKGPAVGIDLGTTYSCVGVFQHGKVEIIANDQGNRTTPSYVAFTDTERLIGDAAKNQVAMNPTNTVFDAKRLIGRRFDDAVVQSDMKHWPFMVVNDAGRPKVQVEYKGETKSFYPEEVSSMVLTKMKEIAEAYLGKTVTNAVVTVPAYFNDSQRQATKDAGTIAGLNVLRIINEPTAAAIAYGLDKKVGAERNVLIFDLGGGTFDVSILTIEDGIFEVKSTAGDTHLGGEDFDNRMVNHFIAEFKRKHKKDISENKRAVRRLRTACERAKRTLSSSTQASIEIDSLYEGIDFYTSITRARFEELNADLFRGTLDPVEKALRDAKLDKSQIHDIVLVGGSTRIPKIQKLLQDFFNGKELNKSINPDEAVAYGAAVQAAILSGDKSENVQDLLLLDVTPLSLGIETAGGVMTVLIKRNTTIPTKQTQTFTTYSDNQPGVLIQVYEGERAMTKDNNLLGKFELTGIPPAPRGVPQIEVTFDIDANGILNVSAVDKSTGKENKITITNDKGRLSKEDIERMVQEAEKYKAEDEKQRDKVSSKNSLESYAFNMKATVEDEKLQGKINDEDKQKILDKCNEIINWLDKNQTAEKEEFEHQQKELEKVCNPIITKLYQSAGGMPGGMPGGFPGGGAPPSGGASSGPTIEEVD
The experiment in a line: reconstituted purified HSC70: fluorescence anisotropy peptide release ([…] YK198) and stopped-flow MABA-ATP binding ([…]); also CETSA. Format: biochemical. A general note: Polarisation of emitted light reports the rotation of a fluorescent probe.

Regarding `COc1cccc(COc2nc(N3CCC(N(C)C)C3)ncc2Sc2ccc(N)nc2)c1` (stereo not drawn) [LSI137], the IC50 (usually the point on the concentration scale where inhibition reaches its midpoint) in test [1] came to 0.06 µM.

In test [2], `C=CC(=O)Nc1cc(N)nc(Sc2c(OC)nc(N3CCN(C)CC3)nc2OC)n1` [YK5] showed an IC50 of 5 µM.

Regarding `CN1CCN(c2ncc(Sc3ccc(N)nc3)c(OCc3ccccc3)n2)CC1` [YK198], in test [3], the “reconstituted purified HSC70: fluorescence anisotropy peptide release (100 uM YK)” value is reported as “biochemical effect of YKs on HSP70s manifests majorly at the allosteric release of the interactor protein, impairing its release”.
